Test results taken from patent publication US20230312646A1, “ANTIBACTERIAL PEPTIDES” (priority 2020, published 2023).
Where two headings read alike, the source gives them in different places. Numbered stars: 1 amine (or outer) side, 2 acyl side, 3 side chain; on linkers, the order of the positions; unused ones are H or OH. Square brackets hold non-standard residues; d marks the D form. Peptide text beside a SMILES is read from it. * marks the point of attachment. ξ: configuration not given here. ACHC(1S,2S) = O=C([C@H]1CCCC[C@@H]1N[*:1])[*:2]; Acryloyl(3-(3-pyridyl),E) = O=C(/C=C/c1cccnc1)*; Phe(3,4-Cl2) = N[C@@H](Cc1ccc(Cl)c(Cl)c1)C(=O)O; Oic = O=C(O)[C@@H]1C[C@@H]2CCCC[C@@H]2N1; Cinnamoyl(4-F) = O=C(/C=C/c1ccc(F)cc1)*; Hydrocinnamoyl = O=C(CCc1ccccc1)*; NH(4-MeO-phenyl) = COc1ccc(N*)cc1; NMeR = CN[C@@H](CCCNC(=N)N)C(=O)O; X2 = O=C(CN(Cc1ccccn1)[*:1])[*:2]; X7 = C[N+](C)=C(NCC(=O)*)N1CCOCC1; NMeF = CN[C@@H](Cc1ccccc1)C(=O)O; X4 = O=C([O-])[C@H](Cc1ccccc1)N*; NFurfurylGly = O=C(O)CNCc1ccco1; Cha = N[C@@H](CC1CCCCC1)C(=O)O; NMeD = CN[C@@H](CC(=O)O)C(=O)O; X3 = CN(C)C(NCC(=O)*)=[N+](C)C; Phe(ol) = N[C@H](CO)Cc1ccccc1; ξOic = O=C(O)C1CC2CCCCC2N1; Pip = O=C(O)[C@@H]1CCCCN1; X8 = NC[C@H](Cc1ccccc1)N*; X6 = O=C(/C=C/c1ccccc1)*; CO = O=C([*:1])[*:2]

Molecular target: T1, Escherichia coli SC (^EcSC) (Escherichia coli, UniProt P0A988)
T1 construct: His tag (inferred from the pET15b vector and Ni-NTA purification) (N); made in house; host or cells: E. coli
T1 sequence (P0A988 whole entry): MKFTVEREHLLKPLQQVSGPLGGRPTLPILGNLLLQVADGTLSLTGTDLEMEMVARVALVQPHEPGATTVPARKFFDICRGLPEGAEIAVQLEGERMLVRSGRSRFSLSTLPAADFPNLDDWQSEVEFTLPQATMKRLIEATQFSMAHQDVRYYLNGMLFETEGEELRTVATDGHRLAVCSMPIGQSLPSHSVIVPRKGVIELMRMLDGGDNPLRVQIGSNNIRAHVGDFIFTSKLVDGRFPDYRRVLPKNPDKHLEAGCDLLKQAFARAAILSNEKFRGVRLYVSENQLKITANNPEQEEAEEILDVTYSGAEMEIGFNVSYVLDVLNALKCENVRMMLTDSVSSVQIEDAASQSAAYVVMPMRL
Assay: biochemical
Assay type: binding
Conditions: for Kd: Kd (nM); for Kd / ΔG (kcal/mol): ITC at 298.15 K (25° C.); for ΔG (kcal mol^-1): ITC at 25° C.
Procedure: The procedure has been described previously (Wolff, P.; Oliéric, V.; Briand, J. P.; Chaloin, O.; Dejaegere, A.; Dumas, P.; Ennifar, E.; Guichard, G.; Wagner, J.; Burnouf, D. Y., Structure-Based Design of Short Peptide Ligands Binding onto the E. coli Processivity Ring. J. Med. Chem. 2011, 54 (13), 4627-4637). Briefly, E.coli cells were transformed with plasmids pET15b containing the dnaN gene from E. coli and were grown in LB at 37° C. to OD 0.5, then induced by IPTG (0.1 mM) at 28° C. overnight. dnaN proteins fractions were first enriched on a Ni-NTA column, eluted with a histidine step (300 mM) and further purified on a Source Q column in buffer containing 20 mM Tris HCI pH 7.5, 0.5 mM EDTA and 10% (v/v) glycerol, using a gradient from 0 to 0.5 M NaCl. After a final ultracentrifugation (45 K, 1 h, 20° C.), soluble proteins were concentrated on a Centricon 30 K (Millipore) in the same buffer and stored at 4° C. in 2 M ammonium sulfate. Buffer exchange was performed on Centrikon 10 K at 4° C. before use and protein quality was assessed by DLS.
ITC experiments were performed using an iTC200 or a PEAQ-ITC instrument (Microcal Malvern Panalytical). Peptides (300 or 600 µM) were titrated at 25° C. by sequential injections (usually 2 µl each) into an SC solution (30 or 60 µM). Data were corrected for heat of injection by subtracting the signal of the titration of peptides into proteiN-free buffer solution (Hepes 10 mM pH 7.4, NaCl 0.15 M, EDTA 3 mM). Each titration was performed at least twice. Analyses of experimental data were performed following a classical treatment with the AFFINImeter software (https://www.affinimeter.com; S4S, Santiago de Compostela, Spain). In addition, kinetic information was obtained in some cases with kinITC as implemented in the software AFFINImeter.
All newly synthesized peptides were tested for their interaction with ^EcSC by ITC at 25° C. As a general rule, all thermodynamic profiles reveal an exothermic interaction, and a non-favorable entropic component. The resulting negative Gibb’s free energies characterize a spontaneous interaction. The analysis of raw data by the Affinimeter® software also gave access to kinetics rate constant of the interaction.

Structure (SMILES)	Kd	kon (read-out: kon (M^-1.s^-1))	ΔG (kcal/mol)	koff, fold higher than for peptide 1 (P1) (compared to P1)	kon value, fold higher than for peptide 1 (P1) (compared to P1)	ΔG (kcal mol^-1)	kon (read-out: kon (M^-1 s^-1))	fold lower Kd / affinity enhancement in comparison to peptide P27 (compared to P27)
CC(C)C[C@H](NC(=O)[C@H](CC(=O)O)NC(=O)[C@H](CC1CCCCC1)NC(=O)[C@H](CCC(N)=O)NC(=O)CNCc1ccccn1)C(=O)N[C@@H](Cc1ccccc1)C(=O)O [P8] (H-[X2]Q[Cha]DLF-OH)	172 nM	34000 M⁻¹ s⁻¹	–	–	–	–	–	–
CC(=O)N[C@@H](CCC(N)=O)C(=O)N[C@@H](CC1CCCCC1)C(=O)N(C)[C@@H](CC(=O)O)C(=O)N[C@@H](CC(C)C)C(=O)N[C@@H](Cc1ccccc1)C(=O)O [P4] (Ac-Q[Cha][NMeD]LF-OH)	114 nM	210000 M⁻¹ s⁻¹	-9.5 (± 0.1) kcal/mol	2.5 fold	5 fold	–	–	–
COc1ccc(NC(=O)N[C@@H](CCC(N)=O)C(=O)N[C@@H](CC2CCCCC2)C(=O)N(C)[C@@H](CC(=O)O)C(=O)N[C@@H](CC(C)C)C(=O)N[C@@H](Cc2ccc(Cl)c(Cl)c2)C(=O)O)cc1 [P39] ({NH(4-MeO-phenyl)-CO}-Q[Cha][NMeD]L[Phe(3,4-Cl2)]-OH)	266 nM	–	–	–	–	-9.0 (± 0.01) kcal mol^-1	42000 M⁻¹ s⁻¹	–
CC(C)C[C@H](NC(=O)[C@H](CC(=O)O)NC(=O)[C@H](CC1CCCCC1)NC(=O)[C@H](CCC(N)=O)NC(=O)/C=C/c1cccnc1)C(=O)N[C@@H](Cc1ccccc1)C(=O)O [P16] ({Acryloyl(3-(3-pyridyl),E)}-Q[Cha]DLF-OH)	156 nM	46000 M⁻¹ s⁻¹	-9.3 (± 0.2) kcal/mol	–	–	–	–	–
CC(C)C[C@H](NC(=O)[C@H](CC(=O)O)NC(=O)[C@H](CC1CCCCC1)NC(=O)[C@H](CCC(N)=O)NC(=O)CNCc1ccco1)C(=O)N[C@@H](Cc1ccccc1)C(=O)O [P9] (H-[NFurfurylGly]Q[Cha]DLF-OH)	171 nM	48000 M⁻¹ s⁻¹	-9.2 (± 0.1) kcal/mol	–	–	–	–	–
CC(C)C[C@H](NC(=O)[C@H](CC(=O)O)NC(=O)[C@H](CC1CCCCC1)NC(=O)[C@H](CCC(N)=O)NC(=O)CNC(N(C)C)=[N+](C)C)C(=O)N[C@@H](Cc1ccccc1)C(=O)[O-] [P15] (X3-Q[Cha]DL-X4)	353 nM	34000 M⁻¹ s⁻¹	-8.7 (± 0.1) kcal/mol	–	–	–	–	–
CC(=O)N[C@@H](CCC(N)=O)C(=O)N[C@@H](CC1CCCCC1)C(=O)N[C@@H](CC(=O)O)C(=O)N[C@@H](CC(C)C)C(=O)N1C(C(=O)N[C@@H](CC(C)C)C(=O)O)CC2CCCCC21 (stereo partly drawn) [P47] (Ac-Q[Cha]DL[ξOic]L-OH)	–	–	–	–	–	–	71000 M⁻¹ s⁻¹	–
CC(=O)N[C@@H](CCC(N)=O)C(=O)N[C@@H](CC1CCCCC1)C(=O)N[C@@H](CC(=O)O)C(=O)N[C@@H](CC(C)C)C(=O)N[C@H](CO)Cc1ccccc1 [P24] (Ac-Q[Cha]DL[Phe(ol)])	751 nM	26000 M⁻¹ s⁻¹	-8.4 (± 0.1) kcal/mol	–	–	–	–	–
CC(C)C[C@H](NC(=O)[C@H](CC(=O)O)NC(=O)[C@H](CC1CCCCC1)NC(=O)[C@H](CCC(N)=O)NC(=O)CNC(N1CCOCC1)=[N+](C)C)C(=O)N[C@@H](Cc1ccccc1)C(=O)[O-] [P14] (X7-Q[Cha]DL-X4)	276 nM	34000 M⁻¹ s⁻¹	-9.0 (± 0.1) kcal/mol	–	–	–	–	–
CC(C)C[C@H](NC(=O)[C@H](CC(=O)O)NC(=O)[C@H](CC1CCCCC1)NC(=O)[C@H](CCC(N)=O)NC(=O)/C=C/c1ccccc1)C(=O)N[C@@H](Cc1ccccc1)C(=O)O [P17] (X6-Q[Cha]DLF-OH)	129 nM	46000 M⁻¹ s⁻¹	-9.4 (± 0.2) kcal/mol	–	–	–	–	–
CC(=O)N[C@@H](CCCNC(=N)N)C(=O)N[C@@H](CCC(N)=O)C(=O)N[C@@H](CC1CCCCC1)C(=O)N(C)[C@@H](CC(=O)O)C(=O)N[C@@H](CC(C)C)C(=O)N[C@@H](Cc1ccc(Cl)c(Cl)c1)C(=O)O [P36] (Ac-RQ[Cha][NMeD]L[Phe(3,4-Cl2)]-OH)	278 nM	–	–	–	–	–	76000 M⁻¹ s⁻¹	–
CC(=O)N[C@@H](CCC(N)=O)C(=O)N[C@@H](CC1CCCCC1)C(=O)N(C)[C@@H](CC(=O)O)C(=O)N[C@@H](CC(C)C)C(=O)N1CCC[C@H]1C(=O)N[C@@H](Cc1ccccc1)C(=O)O [P45] (Ac-Q[Cha][NMeD]LPF-OH)	81 nM	–	–	–	–	-9.7 (± 0.2) kcal mol^-1	60000 M⁻¹ s⁻¹	–
CC(C)C[C@H](NC(=O)[C@H](CC(=O)O)NC(=O)[C@H](CC1CCCCC1)NC(=O)[C@H](CCC(N)=O)NC(=O)/C=C/c1ccc(F)cc1)C(=O)N[C@@H](Cc1ccccc1)C(=O)O [P18] ({Cinnamoyl(4-F)}-Q[Cha]DLF-OH)	144 nM	–	–	–	–	–	–	–
CC(=O)N[C@@H](CCC(N)=O)C(=O)N[C@@H](CC1CCCCC1)C(=O)N[C@@H](CC(=O)O)C(=O)N[C@@H](CC(C)C)C(=O)N[C@H]1CCCC[C@@H]1C(=O)N[C@@H](CC(C)C)C(=O)O [P31] (Ac-Q[Cha]DL[ACHC(1S,2S)]L-OH)	4070 nM	7400 M⁻¹ s⁻¹	-7.4 (± 0.2) kcal/mol	–	–	–	–	–
CC(=O)N[C@@H](CCC(N)=O)C(=O)N[C@@H](CC1CCCCC1)C(=O)N[C@@H](CC(=O)O)C(=O)N[C@@H](CC(C)C)C(=O)NCC(=O)N[C@@H](Cc1ccccc1)C(=O)O [P29] (Ac-Q[Cha]DLGF-OH)	313 nM	32000 M⁻¹ s⁻¹	-8.9 (± 0.1) kcal/mol	–	–	–	–	–
CC(C)C[C@H](NC(=O)[C@H](CC(=O)O)NC(=O)[C@H](CC1CCCCC1)NC(=O)[C@H](CCC(N)=O)NC(=O)CCc1ccccc1)C(=O)N[C@@H](Cc1ccccc1)C(=O)O [P19] (Hydrocinnamoyl-Q[Cha]DLF-OH)	123 nM	55000 M⁻¹ s⁻¹	–	–	–	–	–	–
CC(=O)N[C@@H](CCC(N)=O)C(=O)N[C@@H](CC1CCCCC1)C(=O)N[C@@H](CC(=O)O)C(=O)N[C@@H](CC(C)C)C(=O)N1CCCC[C@H]1C(=O)N[C@@H](CC(C)C)C(=O)O [P34] (Ac-Q[Cha]DL[Pip]L-OH)	243 nM	43000 M⁻¹ s⁻¹	-9.0 (± 0.1) kcal/mol	–	–	–	–	–
CC(=O)N[C@@H](CCC(N)=O)C(=O)N[C@@H](CC1CCCCC1)C(=O)N[C@@H](CC(=O)O)C(=O)N[C@@H](CC(C)C)C(=O)N(C)[C@@H](Cc1ccccc1)C(=O)O [P7] (Ac-Q[Cha]DL[NMeF]-OH)	> 1000 nM	10000 M⁻¹ s⁻¹	-7.1 (± 0.1) kcal/mol	–	–	–	–	–
CC(=O)N[C@@H](CCC(N)=O)C(=O)N[C@@H](CC1CCCCC1)C(=O)N[C@@H](CC(=O)O)C(=O)N[C@@H](CC(C)C)C(=O)N1[C@H](C(=O)N[C@@H](Cc2ccccc2)C(=O)O)C[C@@H]2CCCC[C@@H]21 [P48] (Ac-Q[Cha]DL[Oic]F-OH)	120 nM	–	–	–	–	-9.5 (± 0.3) kcal mol^-1	55000 M⁻¹ s⁻¹	–
CC(=O)N[C@@H](CCC(N)=O)C(=O)N[C@@H](CC1CCCCC1)C(=O)N[C@@H](CC(=O)O)C(=O)N[C@@H](CC(C)C)C(=O)N1CCC[C@H]1C(=O)N[C@@H](CC(C)C)C(=O)O [P32] (Ac-Q[Cha]DLPL-OH)	182 nM	57000 M⁻¹ s⁻¹	-9.2 (± 0.2) kcal/mol	–	–	–	–	4 fold
CC(=O)N[C@@H](CCC(N)=O)C(=O)N[C@@H](CC1CCCCC1)C(=O)N[C@@H](CC(=O)O)C(=O)N[C@@H](CC(C)C)C(=O)N[C@H](CN)Cc1ccccc1 [P25] (Ac-Q[Cha]DL-X8)	877 nM	12000 M⁻¹ s⁻¹	-8.27 (± 0.03) kcal/mol	–	–	–	–	–
CC(=O)N(C)[C@@H](CCCNC(=N)N)C(=O)N[C@@H](CCC(N)=O)C(=O)N[C@@H](CC1CCCCC1)C(=O)N[C@@H](CC(=O)O)C(=O)N[C@@H](CC(C)C)C(=O)N[C@@H](Cc1ccccc1)C(=O)O [P13] (Ac-[NMeR]Q[Cha]DLF-OH)	2130 nM	21000 M⁻¹ s⁻¹	-7.7 (± 0.1) kcal/mol	4 fold	–	–	–	–
